# In patent US11959083B2, “Immunosuppression-reverting oligonucleotides inhibiting the expression of CD39” (Secarna Pharmaceuticals GmbH & Co. KG, priority 2016, dated 2024):
# l = locked nucleic acid (LNA); d = 2'-deoxy (DNA)
# What was measured:
# hCD39 mRNA [1] = experiment: hCD39 mRNA knockdown efficacy screen in A-172 cells (single dose, gymnotic delivery, QuantiGene Singleplex); type: cell-based, human; conditions: 10 μM, 3 days; for Mean hCD39 mRNA expression (relative to untreated cells set as 1): first screening round; for Mean hCD39 mRNA expression (relative to untreated cells set as 1) / Relative hCD39 mRNA expression (compared to non-treated cells): normalized to HPRT1; for Relative hCD39 mRNA expression (compared to non-treated cells): second screening round; for Residual hCD39 mRNA expression relative to untreated cells (set as 1): third screening round
# Experimental: (§1) FIGS. 2A to 2D depict hCD39 mRNA knockdown efficacy of hCD39 antisense oligonucleotides in human cancer cell lines HDLM-2 (human Hodgkin Lymphoma) in a first and second screening round (FIGS. 2A-1 and 2A-2) and 2B-1 and 2B-2 and A-172 (human glioblastoma) in a first and second screening round (FIGS. 2C-1 and 2C-2) and 2D-1 and 2D-2. HDLM-2 and A-172 cells were treated for 3 days with 10 μM of the respective antisense oligonucleotide. As negative control, cells were treated with neg1, an antisense oligonucleotide having the sequence CGTTTAGGCTATGTACTT (SEQ ID NO:99) (described in WO2014154843 A1). Residual hCD39 mRNA expression relative to untreated cells is depicted. Expression values were normalized to expression of the housekeeping gene HPRT1. Depicted is the mean of triplicate wells+/−SD.
# (§2) FIGS. 6A-6B depicts a third screening round where further antisense oligonucleotides were designed. These antisense oligonucleotides were based on efficient antisense oligonucleotides from the first and second screening round. Therefore, hCD39 antisense oligonucleotides were tested in human cancer cell lines HDLM-2 (human Hodgkin's lymphoma) (FIG. 6A) and A-172 (human glioblastoma) (FIG. 6B). HDLM-2 and A-172 cells were treated for 3 days with 10 μM of the respective antisense oligonucleotide. […] Residual hCD39 mRNA expression relative to untreated cells (set as 1) is depicted.
# (§3) In order to analyze the efficacy of hCD39 antisense oligonucleotides of the present invention with regard to the knockdown of hCD39 mRNA expression in cancer cell lines, HDLM-2 (human Hodgkin Lymphoma, DSMZ) and A-172 (human glioblastoma, ATCC) cells were treated with a single dose (concentration: 10 μM without addition of any transfection reagent; this process is called gymnotic delivery) of the respective antisense oligonucleotide as shown in FIG. 2A to 2D. hCD39 and HPRT1 mRNA expression was analyzed three days later using the QuantiGene Singleplex assay (Affymetrix) and hCD39 expression values were normalized to HPRT1 values. […] Values of the mean normalized mRNA expression of hCD39 compared to non-treated cells are listed for A-172 (Table 4 for first screening round and Table 5 for second screening round) and HDLM-2 cells (Table 6 for first screening round and Table 7 for second screening round) in the following:
# (§4) For a third screening round, new antisense oligonucleotides were designed. These antisense oligonucleotides were based on efficient antisense oligonucleotides from the first screening round with modifications in length, exact position on mRNA and chemical modification pattern. Therefore, hCD39 antisense oligonucleotides were tested in human cancer cell lines (FIG. 6A, Table 10) HDLM-2 (human Hodgkin's lymphoma) and (FIG. 6B, Table 11) A-172 (human glioblastoma). HDLM-2 and A-172 cells were treated for 3 days with 10 μM of the respective antisense oligonucleotide. […] Residual hCD39 mRNA expression relative to untreated cells (set as 1) is depicted.
# hCD39 mRNA [2] = experiment: hCD39 mRNA knockdown efficacy screen in HDLM-2 cells (single dose, gymnotic delivery, QuantiGene Singleplex); type: cell-based, human; design: key to Relative hCD39 mRNA expression (compared to non-treated cells): *: values are below detection limit; conditions: 10 μM, 3 days; for Mean hCD39 mRNA expression normalized to HPRT1 relative to untreated control = 1: first screening round; for Relative hCD39 mRNA expression (compared to non-treated cells): second screening round, normalized to HPRT1; for Residual hCD39 mRNA expression relative to untreated cells (set as 1): third screening round
# Experimental: as §1, §2, §3, §4
Substance,Mean hCD39 mRNA expression (relative to untreated cells set as 1) (hCD39 mRNA [1]),Relative hCD39 mRNA expression (compared to non-treated cells) (hCD39 mRNA [1]),Mean hCD39 mRNA expression normalized to HPRT1 relative to untreated control = 1 (hCD39 mRNA [2]),Relative hCD39 mRNA expression (compared to non-treated cells) (hCD39 mRNA [2]),Residual hCD39 mRNA expression relative to untreated cells (set as 1) (hCD39 mRNA [1]),Residual hCD39 mRNA expression relative to untreated cells (set as 1) (hCD39 mRNA [2])
"+A*+G*+G*C*G*A*A*A*T*T*G*C*+A*+G*+A (antisense AGGCGAAATTGCAGA; sugars from the 5' end l3 d9 l3, all phosphorothioate, methylation of C not given here) [A04008H]",0.46,0.46,0.20,0.20,–,–
"+T*+A*+C*T*C*C*A*G*C*G*T*A*A*+G*+A*+T (antisense TACTCCAGCGTAAGAT; sugars from the 5' end l3 d10 l3, all phosphorothioate, methylation of C not given here) [A04027H]",0.58,0.58,0.24,0.24,–,–
"+G*T*+C*A*A*T*C*C*T*G*C*T*C*A*+A*+C (antisense GTCAATCCTGCTCAAC; sugars from the 5' end l1 d1 l1 d11 l2, all phosphorothioate, methylation of C not given here) [A04038H]",0.56,0.29,0.20,*,–,–
"+G*G*+T*T*T*G*T*G*T*G*A*G*+A*G*+C (antisense GGTTTGTGTGAGAGC; sugars from the 5' end ldldddddddddldl, all phosphorothioate, methylation of C not given here) [A04062H]",–,–,–,–,0.17,0.01
"+G*+A*+G*G*C*G*A*A*A*T*T*G*C*A*+G*+A (antisense GAGGCGAAATTGCAGA; sugars from the 5' end l3 d11 l2, all phosphorothioate, methylation of C not given here) [A04024H]",0.45,0.45,0.15,0.15,–,–
"+T*+T*+T*G*T*G*T*G*A*G*A*G*+C*+T*+T (antisense TTTGTGTGAGAGCTT; sugars from the 5' end l3 d9 l3, all phosphorothioate, methylation of C not given here) [A04058H]",–,–,–,–,0.25,0.01
"+A*+A*+G*G*T*C*A*C*T*T*A*C*G*T*+T*+C*+A (antisense AAGGTCACTTACGTTCA; sugars from the 5' end l3 d11 l3, all phosphorothioate, methylation of C not given here) [A04046H]",0.14,0.08,0.04,0.37,–,–
"+A*+G*T*C*C*A*G*C*C*G*G*C*G*T*+C (antisense AGTCCAGCCGGCGTC; sugars from the 5' end l2 d12 l1, all phosphorothioate, methylation of C not given here) [A04015H]",–,1.05,0.29,0.29,–,–
"+C*+T*+G*A*C*T*G*A*A*T*T*T*G*+C*+C*+C (antisense CTGACTGAATTTGCCC; sugars from the 5' end l3 d10 l3, all phosphorothioate, methylation of C not given here) [A04021H]",0.16,0.16,0.11,0.11,–,–
"+A*+G*G*A*T*A*G*T*C*T*T*G*T*C*+T*+C (antisense AGGATAGTCTTGTCTC; sugars from the 5' end l2 d12 l2, all phosphorothioate, methylation of C not given here) [A04034H]",0.28,0.15,0.06,0.06,–,–
"+C*+C*C*T*G*G*A*T*C*T*T*G*C*C*+A*+A*+T (antisense CCCTGGATCTTGCCAAT; sugars from the 5' end l2 d12 l3, all phosphorothioate, methylation of C not given here) [A04049H]",–,0.45,–,*,–,–
"+A*+C*+T*C*C*A*G*C*G*T*A*A*+G*+A*+T (antisense ACTCCAGCGTAAGAT; sugars from the 5' end l3 d9 l3, all phosphorothioate, methylation of C not given here) [A04013H]",–,0.75,0.22,0.22,–,–
"+A*+G*A*G*T*G*C*C*T*G*A*T*C*C*+T*+T (antisense AGAGTGCCTGATCCTT; sugars from the 5' end l2 d12 l2, all phosphorothioate, methylation of C not given here) [A04025H]",0.13,0.13,0.08,0.08,–,–
"+G*+C*C*A*T*A*G*G*C*A*C*C*+T*+T*+C (antisense GCCATAGGCACCTTC; sugars from the 5' end l2 d10 l3, all phosphorothioate, methylation of C not given here) [A04004H]",0.65,0.66,0.22,0.21,–,–
"+C*+T*+A*T*G*C*T*G*A*A*C*C*+A*+C*+C (antisense CTATGCTGAACCACC; sugars from the 5' end l3 d9 l3, all phosphorothioate, methylation of C not given here) [A04005H]",0.11,0.11,0.21,0.21,–,–
"+C*C*T*A*C*C*C*A*G*G*A*T*A*G*+T*+C (antisense CCTACCCAGGATAGTC; sugars from the 5' end l1 d13 l2, all phosphorothioate, methylation of C not given here) [A04035H]",–,0.37,0.17,0.18,–,–
